Patent publication US20180271930A1, “METHOD FOR RAISING POULTRY” (priority 2015, published 2018)

Experiments:
myogenin = assay: Examination 4: myogenin gene expression in superficial pectoral muscle at 3 days old; format: in vivo, broiler chicks; conditions: 0.01% by mass additive in feed for 3 days, FIG. 3A, n=4
Description: FIGS. 3A to 3C illustrate graphs showing the expression of genes related to skeletal muscle cell differentiation in superficial pectoral muscles upon administration of each feed composition in Examination 4 (n=4). […] A relative value of the expression level of each factor is expressed as an average±standard deviation of values obtained by dividing the expression levels of each factor by the expression level of RPS9. Newly hatched broiler chicks (Ross Breeders Ltd.) were tested. A control group (=additive-free group), a GSSG addition group (0.01% by mass), and a GSH addition group (0.01% by mass) each consisting of 5 males and 5 females were set and fed with a feed composition for 3 days. […] At this timing, 2 males and 2 females in each group were slaughtered to collect blood and skeletal muscles. The gene expression levels of the MyoD family (myogenin, myostatin, and Pax7) were observed. […] Statistics were analyzed using a mixed model in consideration of a gender difference and an interaction between males and females. A method for determining gene expressions of the above factors in skeletal muscles is described above. An ammonium salt was used as oxidized glutathione (GSSG). The GSSG contained 95.6% by mass of oxidized glutathione, and the content of reduced glutathione mixed therein was 0.1% by mass or less. […]

[1] = Examination 4: body weight of chicks raised until 35 days old after feeding GSSG or GSH for 3 days; format: in vivo, broiler chicks; conditions: 0.01% by mass additive in feed for 3 days; n = 6, average ± standard deviation
Description: Newly hatched broiler chicks (Ross Breeders Ltd.) were tested. A control group (=additive-free group), a GSSG addition group (0.01% by mass), and a GSH addition group (0.01% by mass) each consisting of 5 males and 5 females were set and fed with a feed composition for 3 days. […] At this timing, 2 males and 2 females in each group were slaughtered to collect blood and skeletal muscles. The gene expression levels of the MyoD family (myogenin, myostatin, and Pax7) were observed. […] Statistics were analyzed using a mixed model in consideration of a gender difference and an interaction between males and females. An ammonium salt was used as oxidized glutathione (GSSG). The GSSG contained 95.6% by mass of oxidized glutathione, and the content of reduced glutathione mixed therein was 0.1% by mass or less. […] A feed composition, for which the amount of oxidized glutathione (GSSG) added was set to 0.01% by mass, is described in Examination 1. A feed composition, for which the amount of reduced glutathione (GSH) added was set to 0.01% by mass, was prepared by adding 0.01% by mass of GSH, instead of 0.01% by mass of GSSG, to the GSSG-containing feed composition described in detail in Examination 1.

N[C@@H](CCC(=O)N[C@@H](CS)C(=O)NCC(=O)O)C(=O)O [GSH, N—(N-γ-L-glutamyl-L-cysteinyl)glycine, reference compound]
myogenin expression level vs control group (myogenin): smaller than the decrease
Weight, 14 days old [1]: 512.7 ± 79.8 g
Weight, 35 days old [1]: 2052 ± 267 g
